Converted amounts (≈) assume the structure as drawn.

The assay deals with P388. Nature of the assay: Cytotoxicity against mouse P388 cells after 4 days by MTT method. The assay is classed as functional, cell-based. Particulars: P388, 96 h.

Regarding `CC(C)=CC(=O)/C=C(\C)CCC/C(C)=C/CC[C@@H](C)O` [HEDAOL C], the concentration for half-maximal inhibition (IC50) came to 50 µg/mL (≈ 180 µM).

`CC(C)=CC(=O)/C=C(/C)CCC/C(C)=C/CC[C@@H](C)O` [HEDAOL A]: half-maximal inhibition (IC50) was put at 5.1 µg/mL (≈ 18.3 µM).

`CC(C)=CC(=O)C/C(C)=C/CC/C(C)=C/CC[C@@H](C)O` [HEDAOL B] displayed an IC50 of 2.2 µg/mL (≈ 7.9 µM).

The record behind these values is ChEMBL document CHEMBL1150844, “Isolation and structures of hedaols A, B, and C, new bisnorditerpenes from a Japanese brown alga” (J Nat Prod, 2001).
